Counter-ions that a name gives are not always drawn. Like-named read-outs stand apart in the source and are kept apart here.
How the values were obtained:
human NTCP [1] = target: T1, human NTCP (Homo sapiens, UniProt Q14973); test: Screening taurocholate uptake assay (96-well, [14C]taurocholate, 10 µM drug)
T1 sequence (Q14973 1-349): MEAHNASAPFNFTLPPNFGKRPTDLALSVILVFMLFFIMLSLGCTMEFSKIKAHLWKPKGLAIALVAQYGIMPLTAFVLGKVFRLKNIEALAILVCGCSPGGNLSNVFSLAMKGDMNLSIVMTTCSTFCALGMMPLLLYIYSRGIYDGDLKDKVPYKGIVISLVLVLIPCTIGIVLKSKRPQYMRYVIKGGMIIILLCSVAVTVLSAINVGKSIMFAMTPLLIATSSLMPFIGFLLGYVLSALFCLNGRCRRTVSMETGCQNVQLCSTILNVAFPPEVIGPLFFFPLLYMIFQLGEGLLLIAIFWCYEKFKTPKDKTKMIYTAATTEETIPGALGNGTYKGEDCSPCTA

human NTCP [2] = target: T1, human NTCP; test: Screening fluorescent competitive Myrcludex B-FITC binding assay (96-well, 10 µM drug)
[3] = Prestwick library screen, 10 µM drug, B-score of taurocholate uptake
[4] = combined ranking from functional and binding assay B-scores
[5] = Prestwick library screen, 10 µM drug, B-score of Myrcludex B-FITC binding
[6] = combined ranking from functional and binding screening assays
[7] = screen, 10 µM drug, taurocholate uptake
[8] = screen, 10 µM drug, Myrcludex B-FITC binding
[9] = Prestwick library screen, taurocholate uptake, 10 µM drug
[10] = ranking score beside the functional and binding assay B-scores of the screen
[11] = Prestwick library screen, Myrcludex B-FITC binding, 10 µM drug

Row | Structure (SMILES) | Ranking score (human NTCP [1]; [6]) | B-score functional assay (human NTCP [1]; [7]) | B-score binding assay (human NTCP [2]; [8]) | B-score functional assay (human NTCP [1]; [9]) | Ranking score (human NTCP [1]; [10]) | B-score binding assay (human NTCP [2]; [11]) | further results
1 | C#C[C@]1(O)CC[C@H]2[C@@H]3[C@H](C)CC4=C(CCC(=O)C4)[C@H]3CC[C@@]21C [Tibolone] |  |  |  |  |  |  | B-score functional assay (human NTCP [1]; [3]): 0.613; Ranking score (human NTCP [1]; [4]): 930.923; B-score binding assay (human NTCP [2]; [5]): 0.535
2 | CC(C)(C)NC[C@H](O)COc1nsnc1N1CCOCC1.O=C(O)/C=C\C(=O)O [Timolol maleate salt] |  |  |  |  |  |  | B-score functional assay (human NTCP [1]; [3]): 1.166; Ranking score (human NTCP [1]; [4]): 1052.08; B-score binding assay (human NTCP [2]; [5]): 0.866
3 | Clc1ccc2nsnc2c1NC1=NCCN1 [Tizanidine HCl] | 334.885 | -0.107 | -1.169 |  |  |  | 
4 | Cc1cccc(C)c1NC(=O)C(C)N (stereo not drawn) [Tocainide hydrochloride] |  |  |  |  |  |  | B-score functional assay (human NTCP [1]; [3]): 1.054; Ranking score (human NTCP [1]; [4]): 1036.23; B-score binding assay (human NTCP [2]; [5]): 0.83
5 | c1ccc(CC2=NCCN2)cc1 [Tolazoline hydrochloride] |  |  |  |  |  |  | B-score functional assay (human NTCP [1]; [3]): 4.096; Ranking score (human NTCP [1]; [4]): 929.251; B-score binding assay (human NTCP [2]; [5]): 0.03
6 | CCCCNC(=O)NS(=O)(=O)c1ccc(C)cc1 [Tolbutamide] | 448.765 | 0.082 | -0.855 |  |  |  | 
7 | Cc1ccc(C(=O)c2cc(O)c(O)c([N+](=O)[O-])c2)cc1 [Tolcapone] | 424.338 | -1.594 | 1.049 |  |  |  | 
8 | Cc1ccc(C(=O)c2ccc(CC(=O)O)n2C)cc1 [Tolmetin sodium salt dihydrate] |  |  |  |  |  |  | B-score functional assay (human NTCP [1]; [3]): 0.203; Ranking score (human NTCP [1]; [4]): 996.915; B-score binding assay (human NTCP [2]; [5]): 2.458
9 | Cc1ccc(O)c([C@H](CCN(C(C)C)C(C)C)c2ccccc2)c1 [Tolterodine tartrate] |  |  |  | 0.018 | 673.446 | 0.032 | 
10 | CC1(C)O[C@@H]2[C@@H](CO[C@@]3(COS(N)(=O)=O)OC(C)(C)O[C@@H]23)O1 [Topiramate] |  |  |  | 1.004 | 700.689 | -0.268 | 
11 | CC[C@@]1(O)C(=O)OCc2c1cc1n(c2=O)Cc2cc3c(CN(C)C)c(O)ccc3nc2-1 [Topotecan] |  |  |  | 0.858 | 819.148 | 0.007 | 
12 | Cl.NC1CCN(c2nc3c(cc2F)c(=O)c(C(=O)O)cn3-c2ccc(F)cc2F)C1 (stereo not drawn) [Tosufloxacin hydrochloride] |  |  |  | 0.009 | 746.768 | 0.338 | 
13 | COc1cccc(C2(O)CCCCC2CN(C)C)c1.Cl (stereo not drawn) [Tramadol hydrochloride] | 410.66 | 0.906 | -1.463 |  |  |  | 
14 | N[C@@H]1C[C@H]1c1ccccc1 [Tranylcypromine hydrochloride] |  |  |  |  |  |  | B-score functional assay (human NTCP [1]): 0.857; Ranking score (human NTCP [1]): 1041.86; B-score binding assay (human NTCP [2]): 1.095
15 | O=c1n(CCCN2CCN(c3cccc(Cl)c3)CC2)nc2ccccn12 [Trazodone hydrochloride] |  |  |  | 0.169 | 707.824 | -0.001 | 
16 | C(#CCN1CCCC1)CN1CCCC1.Cl.Cl [Tremorine dihydrochloride] | 382.832 | -2.034 | 1.525 |  |  |  | 
17 | C[C@]12C=CC(=O)C=C1CC[C@H]1[C@@H]3C[C@@H](O)[C@](O)(C(=O)CO)[C@@]3(C)C[C@H](O)[C@@]12F [Triamcinolone] |  |  |  | 1.923 | 735.139 | -0.283 | 
18 | Nc1nc(N)c2nc(-c3ccccc3)c(N)nc2n1 [Triamterene] |  |  |  | 0.708 | 725.193 | -0.121 | 
19 | CCOC1O[C@H]([C@@H](COCc2ccccc2)OCc2ccccc2)[C@H](OCc2ccccc2)[C@H]1O (stereo partly drawn) [Tribenoside] | 300.985 | -1.789 | -0.023 |  |  |  | 
20 | COP(=O)(OC)C(O)C(Cl)(Cl)Cl (stereo not drawn) [Trichlorfon] | 431.184 | -0.853 | 0.016 |  |  |  | 
21 | NS(=O)(=O)c1cc2c(cc1Cl)NC(C(Cl)Cl)NS2(=O)=O (stereo not drawn) [Trichlormethiazide] |  |  |  |  |  |  | B-score functional assay (human NTCP [1]; [3]): 0.593; Ranking score (human NTCP [1]; [4]): 921.314; B-score binding assay (human NTCP [2]; [5]): 0.486

Reference: publication PMC5681660, “Reduced hepatitis B and D viral entry using clinically applied drugs as novel inhibitors of the bile acid transporter NTCP” (Scientific Reports, 2017)
